# Source: patent US8293724B2, “Therapeutic applications of fatty acid amide hydrolase inhibitors” (The United States of America, as represented by the …, priority 2007, dated 2012)
# Key:
# [1] = biological target: CB1 cannabinoid receptor (Homo sapiens, UniProt P21554); assay: Affinity for the CB1 cannabinoid receptor; type: binding
# [2] = system: anandamide transporter; assay: Inhibition of the anandamide transporter (anandamide uptake); type: cell-based; conditions: concentrations of up to 20 μM
# [3] = system: spontaneously hypertensive rat (SHR); assay: Hemodynamic measurements in anesthetized spontaneously hypertensive rats; type: in vivo
# Experimental: Anandamide, the CB1 receptor antagonist AM251, and the anandamide transport inhibitors AM404 and OMDM-2 were obtained from Tocris; and the CB1 antagonist SR141716 and the CB2 antagonist SR144528 were from the National Institute on Drug Abuse drug supply program. Drugs were mixed in corn oil and sonicated for 5 minutes at 4° C. The mixture was added to 4 parts of Pluronic F68 (Sigma-Aldrich) solution (40 mg/mL) dissolved in water and sonicated to obtain a stable suspension for bolus intravenous injections.
# Rats were obtained from Harlan (Indianapolis, Ind.). Male, 8- to 10-month-old SHR, age-matched male Wistar-Kyoto rats (WKY), and 8- to 10-week-old male Sprague-Dawley rats were maintained on standard rat chow and water ad libitum. Dahl salt-sensitive and salt-resistant rats (male, Rapp strain, 6 weeks old) were maintained for 4 weeks on rat chow containing either 0.12% or 8% NaCl. […] Hypertension was induced in Sprague-Dawley rats by chronic infusion of angiotensin II (60 ng/min) via an osmotic minipump (Imig et al. Hypertension 2002; 39: 690-694. Rats were used 10 to 12 days after implantation of the minipump.
# For hemodynamic measurements, rats were anesthetized with pentobarbital sodium (60 mg/kg IP) and tracheotomized to facilitate breathing. Animals were placed on controlled heating pads, and core temperature, measured via a rectal probe, was maintained at 37° C. A microtip pressure-volume catheter (SPR-838; Millar Instruments) was inserted into the right carotid artery and advanced into the left ventricle (LV) under pressure control as described previously. Polyethylene cannulae (P50) were inserted into the right femoral artery and vein for measurement of mean arterial pressure (MAP) and administration of drugs, respectively. […] Heart rate, maximal LV systolic pressure, MAP, and maximal slope of systolic pressure increment (+dP/dt) were computed with a cardiac pressure-volume analysis program (PVAN2.9; Millar). Cardiac output calculated and corrected according to in vitro and in vivo volume calibrations with PVAN2.918 was normalized to body weight (cardiac index [CI]). Total peripheral resistance index (TPRI) was calculated by the equation TPRI=MAP/CI. In 3 experiments, drugs were microinjected into the fourth cerebral ventricle as described by Ramirez-Gonzalez et al. Circ Res. 1983; 53, 150-157.
# Time-dependent variables were analyzed by ANOVA followed by the Dunnett post hoc test. In other cases, the Student t test was used, as appropriate. Values with P<0.05 were considered statistically significant.
# [4] = biological target: T1, FAAH (Mus musculus, UniProt O08914); assay: FAAH activity in brain and liver homogenates following in vivo administration; design: species or system mice
# T1 construct: the brain and liver removed, and tissue homogenates prepared as described above; from tissue; host or cells: mouse brain and liver homogenates after in vivo dosing
# T1 sequence (O08914 1-579): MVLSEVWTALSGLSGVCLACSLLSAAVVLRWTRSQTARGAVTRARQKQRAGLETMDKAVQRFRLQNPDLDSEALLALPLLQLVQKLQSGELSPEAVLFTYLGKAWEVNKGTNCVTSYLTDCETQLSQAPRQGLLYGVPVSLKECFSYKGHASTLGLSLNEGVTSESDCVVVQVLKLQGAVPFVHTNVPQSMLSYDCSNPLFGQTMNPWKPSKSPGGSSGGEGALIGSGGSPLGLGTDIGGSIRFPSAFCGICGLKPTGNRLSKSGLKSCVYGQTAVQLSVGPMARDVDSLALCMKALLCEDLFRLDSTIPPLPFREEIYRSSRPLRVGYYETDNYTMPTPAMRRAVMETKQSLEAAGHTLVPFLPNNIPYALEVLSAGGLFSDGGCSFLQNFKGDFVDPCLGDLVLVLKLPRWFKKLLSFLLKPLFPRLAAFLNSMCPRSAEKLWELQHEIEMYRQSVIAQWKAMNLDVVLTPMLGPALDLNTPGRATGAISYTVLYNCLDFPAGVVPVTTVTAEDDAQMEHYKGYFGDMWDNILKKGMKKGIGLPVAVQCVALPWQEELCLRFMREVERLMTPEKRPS
# Experimental: For the experiments illustrated in FIG. 3, FAAH activity was assessed through a different method not requiring TLC separation, as described by Jonsson et al: Br. J. Pharmacol. 133:1263-1275, 1997. […] The mice were sacrificed one hour later, the brain and liver removed, and tissue homogenates prepared as described above. [^3H]Anandamide labeled on the ethanolamide moiety was added to the homogenate and incubated at 37° C. for 10 min. The homogenate was then extracted twice with chloroform:methanol 1:1 and the radioactivity in the aqueous phase (containing the released ethanolamide) was counted.
# [5] = biological target: T2, FAAH (Rattus norvegicus, UniProt P97612); assay: Hepatic FAAH activity in SHR and WKY after i.p. treatment; type: in vivo; conditions: AM3506 1 mg/kg, n=3-5
# T2 construct: from tissue; host or cells: liver of SHR and WKY rats treated in vivo
# T2 sequence (P97612 1-579): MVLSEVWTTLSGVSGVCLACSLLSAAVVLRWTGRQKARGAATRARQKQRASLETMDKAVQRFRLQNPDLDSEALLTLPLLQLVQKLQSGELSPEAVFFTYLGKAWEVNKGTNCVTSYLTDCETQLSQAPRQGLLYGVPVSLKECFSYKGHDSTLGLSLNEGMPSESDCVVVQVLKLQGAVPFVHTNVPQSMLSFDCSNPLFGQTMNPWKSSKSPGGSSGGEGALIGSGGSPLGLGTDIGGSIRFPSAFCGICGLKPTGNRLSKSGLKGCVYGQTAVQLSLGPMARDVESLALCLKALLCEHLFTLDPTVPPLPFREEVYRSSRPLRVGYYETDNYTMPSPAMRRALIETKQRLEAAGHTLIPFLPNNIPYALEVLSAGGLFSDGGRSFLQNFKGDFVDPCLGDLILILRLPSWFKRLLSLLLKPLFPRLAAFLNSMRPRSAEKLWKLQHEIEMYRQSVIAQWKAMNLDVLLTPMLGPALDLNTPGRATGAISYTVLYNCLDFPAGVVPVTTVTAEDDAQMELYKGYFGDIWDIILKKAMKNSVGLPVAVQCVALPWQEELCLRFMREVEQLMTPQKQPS
# [6] = Non-fasting blood glucose in SHR and WKY; conditions: AM3506 1 mg/kg i.p., n=6
# [7] = AM3506 1 mg/kg versus URB597 10 mg/kg
# [8] = AM3506 bolus 1 mg/kg, anesthetized SHR, FIG. 7
# Sequence of CB1 cannabinoid receptor (P21554 whole entry): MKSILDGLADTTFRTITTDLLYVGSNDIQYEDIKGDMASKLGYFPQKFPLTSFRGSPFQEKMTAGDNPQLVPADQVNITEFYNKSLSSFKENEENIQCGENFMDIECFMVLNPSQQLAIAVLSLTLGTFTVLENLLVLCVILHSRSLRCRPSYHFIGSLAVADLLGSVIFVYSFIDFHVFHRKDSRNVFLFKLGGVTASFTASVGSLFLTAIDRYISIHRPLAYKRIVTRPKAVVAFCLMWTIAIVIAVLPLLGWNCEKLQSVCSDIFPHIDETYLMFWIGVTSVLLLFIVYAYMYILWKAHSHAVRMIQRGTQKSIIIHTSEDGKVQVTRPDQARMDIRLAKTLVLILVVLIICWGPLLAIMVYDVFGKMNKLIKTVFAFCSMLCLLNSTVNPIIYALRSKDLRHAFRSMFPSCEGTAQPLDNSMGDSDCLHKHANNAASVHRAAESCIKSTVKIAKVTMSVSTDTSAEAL
structure (smiles),measurement,setting,value
O=S(=O)(F)CCCCCc1ccc(O)cc1 [AM3506],Ki,[1],192 nM
same,inhibition of the anandamide transporter,[2],did not inhibit
same,lowering of blood pressure,"[3]; AM3506 0.3 mg/kg i.v., SHR",90 mmHg
same,dose equivalence in producing hypotension,[3]; [7],equieffective with 10 mg/kg URB597
same,cardiac contractility,[3]; [8],significantly decreases
same,cardiac output,[3]; [8],reduced
same,left ventricular end systolic pressure (LVESP),[3]; [8],decreases
same,maximal slope of the systolic pressure increment (dP/dt),[3]; [8],decrease
same,stroke volume,[3]; [8],reduced
same,blood pressure effect,"[3]; AM3506 intravenously 1 mg/kg in 50 μl, anesthetized SHR, FIG. 1",hypotensive effect
same,inhibition of FAAH in liver,[4]; AM3506 1 mg/kg,devoid of inhibitory potency in liver
same,dose equivalence in inhibition of FAAH in brain,[4]; [7],equieffective with 10 mg/kg URB597
same,reduction of hepatic FAAH activity,[5]; SHR,11.1±0.04%
same,reduction of hepatic FAAH activity,[5]; WKY,6.7±0.2%
same,non-fasting blood glucose after treatment,"[6]; SHR, from 97.8±5.6",97.8 ± 2.9 mg/dL
same,non-fasting blood glucose after treatment,"[6]; WKY, from 114.5±5.3",108.2 ± 4.5 mg/dL
